Assay results taken from patent publication US11458126B2, “DHODH inhibitor for use in treating hematologic cancers” (PTC THERAPEUTICS, INC., priority 2017, dated 2022).

What was measured:
DHODH = DHODH (Homo sapiens, UniProt Q02127); assay: Pull-down with Cpd 1-linked Sepharose beads, Western blot; assay type: binding; set-up: 1 mL of cell lysate solution (2 mg/mL protein) was added to each reaction tube; endogenous in cells
From the text: Western Blot Analysis. […] Subsequently, the conditioned medium was harvested by mixing with equal volume of 2×SDS-PAGE sample buffer (Bio-Rad). […] Proteins in the samples were resolved on a Tris-glycine Criterion gel (Bio-Rad) and transferred onto a 0.45 μm nitrocellulose membrane. […] Antibody (C1) specific for VEGFA was purchased from Santa Cruz Biotechnologies, CA (1:200 dilution); Antibody specific for human β-actin was purchased from Abcam (1:10000 dilution); Antibody specific for V5-tag was purchased from Invitrogen (1:5000 dilution). […] Immunodetection was done using the corresponding secondary antibodies conjugated with infrared dyes or horseradish peroxide. The expression levels of proteins were detected with Odyssey (LI-COR) or using enhanced chemiluminescence (Pierce, Rockford, Ill.).
The wet Sepharose 6B was diluted with pH 11 phosphate/NaOH buffer (5 mL). […] The reaction mixture was stirred further 24 hours at 40° C.
Cells in log phase growth were washed with cold PBS once and then collected by trypsin digestion. […] Proteins in the eluted samples were identified via LC-MS/MS or western blot analysis.

[1] = test system: de novo pyrimidine nucleotide synthesis in HT1080 cells; assay: 15N-glutamine tracing study: pyrimidine nucleotide synthesis metabolites by LC-MS/MS; assay type: cell-based, human
Procedure: HT1080 cells in log phase growth were seeded in 10 cm dishes (4×10^6 cells/dish) and cultured in regular DMEM supplemented with 10% fetal bovine serum (FBS), penicillin (50 IU/mL), and streptomycin (50 μg/mL). After overnight incubation, the culture medium was replenished with glutamine free DMEM containing 1 g/L glucose, 10% fetal bovine serum (FBS), penicillin (50 IU/mL), streptomycin (50 μg/mL) and 1 mM ^15N-glutamine (Sigma, Cat #: 490024). After culturing for the indicated time in the presence of compounds or vehicle control (0.5% DMSO), the cells were washed once with cold PBS (5 mL) and harvested and lysed in cold distilled H2O (0.5 mL) with −80° C. methanol (1 mL) using a plastic cell scraper. The cell lysates were then centrifuged at 10,000×g for 15 minutes at 4° C., and supernatant collected for LC-MS/MS analysis of the ^15N-labelled de novo pyrimidine synthesis metabolites.
LC-MS/MS Detection of Metabolites. Quantification of ^15N-labelled de novo pyrimidine synthesis metabolites was carried out on an Accela pump and a PAL auto-sampler coupled to a TSQ Quantum Ultra mass spectrometer. The mass spectrometer was equipped with a heated electrospray ionization source operated in negative-ion mode (Thermo Fisher Scientific, Waltham, Mass.). The ion spray voltage was set at 2500 V, capillary temperature at 350° C., vaporizer temperature at 300° C.; sheath gas pressure at 50 units and auxiliary gas pressure at 5 units. A Thermo Fisher Scientific Hypercab column (3μ, 50×2.1 mm) was used and maintained at 50° C. for metabolite separation. Mobile phase A was 10 mM NH4HCO3 in water, pH 9.4, and mobile phase B was 10 mM NH4HCO3 in ACN-water (9:1). The flow rate was set at 0.50 mL/min.

[2] = test system: AML subject derived cell lines; assay: Proliferation of AML subject-derived cells (Celltiter Glo); assay type: cell-based, human; details: 72 hours, five AML subject derived cell lines (FIG. 4e)
[3] = Blood-brain barrier penetration, whole-body autoradiography; assay type: in vivo; details: evaluation, rats
[4] = target: panel of biologically important human kinases; assay: Kinase panel; assay type: biochemical; details: off-target panel
From the text: The side-effects associated with these DHODH inhibitors are believed to be due to off-target activities such as kinase inhibition [21; 22]. […] The antiviral compound GSK983 was recently reported as a DHODH inhibitor [23]. […] FACS analysis was done on FACSCalibur (FIG. 8).

[5] = subjects with solid tumors [24]; cited from earlier work
[6] = test system: de novo pyrimidine nucleotide synthesis in HT1080 cells; assay: 15N-glutamine tracing study: pyrimidine nucleotide synthesis metabolites by LC-MS/MS; assay type: cell-based, human; details: 100 nM, 8 hours, vs 0.5% DMSO, LC/MS (FIG. 1a)
MOLM-13 AML cells = assay: MOLM-13 human acute myeloid leukemia xenograft model; assay type: in vivo; details: nude mice, flank tumor; vehicle 7 days (FIG. 6)
Procedure: Human Xenograft Model: HT1080 or MOLM-13 tumor cells in log phase growth (5-10×10^6 cells/mouse, depending on cell lines) were implanted subcutaneously in male athymic nude mice. When the average tumor size reached the indicated size, mice were randomly divided into groups (10-15 mice/group) and administered vehicle or test compounds orally, once a day or twice per day as indicated. Tumor size was measured using calipers at periodic intervals during the study and tumor volume was calculated as L×W^2/2, in which L represents the longest and W is the shortest diameter of the tumors. At the end of the experiments, tumors were excised and homogenized on ice in Tris-HCl buffer containing a cocktail of proteinase inhibitors using a Powergen homogenizer fitted with Omni-Tip disposable/reusable probes (both from Fisher Scientific). Intratumoral levels of growth factors and proteins were measured using commercially available ELISA kits (R&D Systems). Protein concentrations of the homogenates were measured (Bio-Rad protein assay kit) and intratumoral growth factor levels normalized to the total protein concentration.

[7] = cells treated 100 nm for 8 hours in presence of 15N-glutamine, BLDL = Below Detection Limits

DHODH, sequence (Q02127 whole entry): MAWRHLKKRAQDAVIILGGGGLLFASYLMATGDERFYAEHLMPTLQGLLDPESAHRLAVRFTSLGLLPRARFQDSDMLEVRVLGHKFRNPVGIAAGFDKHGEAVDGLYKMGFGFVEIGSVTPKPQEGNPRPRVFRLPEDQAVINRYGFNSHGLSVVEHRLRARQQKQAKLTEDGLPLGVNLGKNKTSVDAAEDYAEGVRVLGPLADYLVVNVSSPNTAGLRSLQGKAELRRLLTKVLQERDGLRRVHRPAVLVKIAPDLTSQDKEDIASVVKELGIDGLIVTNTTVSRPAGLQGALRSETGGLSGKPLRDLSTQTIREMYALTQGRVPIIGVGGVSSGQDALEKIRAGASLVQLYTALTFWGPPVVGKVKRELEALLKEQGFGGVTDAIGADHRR

SMILES: COc1ccc([C@H]2c3[nH]c4ccc(Cl)cc4c3CCN2C(=O)Oc2ccc(Cl)cc2)cc1 [Cpd 1, 4-chlorophenyl (S)-6-chloro-1-(4-methoxyphenyl)-1,3,4,9-tetrahydro-2H-pyrido[3,4-b]indole-2-carboxylate]
- competitive elution of DHODH from Cpd 1 beads by free compound (DHODH; Competing Off (FIG. 2b)): selectively eluted
- binding of DHODH to Cpd 1-linked beads after preincubation with free compound (DHODH; Competing On, Western blot (FIG. 2a)): inhibited
- de novo pyrimidine synthesis (15N-labelled CTP, UTP and UMP) ([1]; HT1080 cells, LCMS (FIG. 1b)): inhibits de novo pyrimidine synthesis
- ^15N-Orotate ([1]; cells treated 100 nm for 8 hours in presence of 15N-glutamine): 44.8 ± 6.1 µM
- ^15N-DHO [1, 7]: 18.1 ± 5.5 µM
- ^15N-UMP [1, 7]: BLDL
- pyrazofurin-MP-induced increase of 15N-orotate ([1]; co-treatment with pyrazofurin-MP, HT1080 cells (FIG. 1c)): blocked
- inhibition of proliferation [2]: inhibition of proliferation in all five AML subject derived cell lines tested
- blood-brain barrier penetration [3]: penetrates the blood-brain barrier
- kinase enzyme activity [4]: lack of inhibition of kinase enzyme activity
- myeloid suppression [5]: did not show myeloid suppression
- total levels of deoxy-pyrimidine nucleotides (dCTP and dTTP) but not deoxy-purine nucleotides dATP and dGTP [6]: selectively decreased
- median time to reach a tumor volume of 1000 mm^3 (MOLM-13 AML cells): 23 days
